The record followed here is patent publication US10822315B2, “5-benzylidene-4-oxazolidinones” (NORTH CAROLINA STATE UNIVERSITY, priority 2016, dated 2020).

For one assay, the system named is MRSA ATCC 33591. The experiment in a line: Broth microdilution MIC determination. The assay is classed as cell-based. The note with it: Staphylococcus aureus, Table 1, read-out: Antimicrobial Activity MIC. As for the experimental part:
(§1) General Information. Methicillin-resistant Staphylococcus aureus (MRSA) strains were obtained from the Laboratory of Professor Christian Melander (NCSU) ATCC (33591, BAA 44, BAA 1685, BAA 1770, BAA 43 300) and colonies were grown on solid media as instructed. Mueller-Hinton broth (MHB, 211443-BD), tryptic soy broth (TSB, Remel: R455052) and D-glucose (CAS: 492-62-6) were purchased from Fisher Scientific. Tryptic soy agar (TSA, cat. #22091) and Linezolid (cat. # P70014) were purchased from Sigma-Aldrich. Bacteria for biofilm inhibition and dispersion assays were cultured overnight in TSBG (tryptic soy broth with 0.5% glucose supplement). All assays were run in duplicate and repeated at least two separate times for MIC assays and at least four separate times for biofilm inhibition and dispersion assays. All compounds were dissolved molecular biology grade DMSO as 100 mM stock solutions and further diluted to 10 and 1 mM stock solutions as needed. Optical densities were measured using a Thermo Scientific Genesys 20 spectrophotometer. Data for biofilm inhibition and dispersion assays was collected using a BioTek ELx808 Microplate Reader. All graphs were generated and analyzed using GraphPad Prism 7.
(§2) Broth microdilution protocol for minimum inhibition concentration (MIC) determination. Studies were performed using the standard method prescribed by the Clinical and Laboratory Standards Institute (CLSI) M07-A8, Vol. 29 (2), which is hereby incorporated herein by reference. Briefly, fresh Mueller-Hinton broth (MHB) ˜3 ml, was inoculated (5×10^5 CFU mL^−1) with MRSA (ATCC 33591) methicillin-resistant Staphylococcus aureus. The resulting bacterial suspension was aliquoted (1 mL) into culture tubes and test compound (10 mM DMSO stock solution) was added to reach the final concentration of the interest. Bacteria not treated with the antimicrobial compound served as the control. Rows 2-12 of a 96-well microtiter plate were filled with remaining bacterial subcultures. The samples containing test compound were aliquoted (200 μL) into the first row wells of the microtiter plate (2 wells per compound). Row 1 wells were mixed 6-8 times and 100 μL was transferred down to row 2. Row 2 wells were mixed 6-8 times, followed by a 100 μL transfer from row 2 down to row 3. The rest of the rows of the plate were serially diluted in similar fashion. The plate was covered with sealing tape for 96-well plates (ThermoFisher) and incubated under stationary conditions at 37° C. A duplicate of the plate was prepared.
On the technique in general: Dilution methods test growth across graded concentrations, often in twofold steps.

Assay [1] has as its system MRSA Strain 1685. Description: Broth microdilution MIC determination. It is filed as cell-based. Conditions: Staphylococcus aureus. As for the experimental part: as §1, §2
Assay [2] relates to MRSA Strain 1770. Description: Broth microdilution MIC determination. It is filed as cell-based. Conditions: Staphylococcus aureus. Here is the method: as §1, §2
Assay [3] relates to MRSA Strain 43300. Description: Broth microdilution MIC determination. The assay is classed as cell-based. The note with it: Staphylococcus aureus. Here is the method:
as §1, §2

In assay [4] the test system is MRSA ATCC BAA-44. Description: Biofilm dispersion assay (crystal violet, pre-formed biofilm). It is filed as cell-based, Staphylococcus aureus. The note with it: for % dispersion of pre-formed biofilm: 40 μM; for % dispersion of pre-formed biofilm at 5 µM: MRSA ATCC BAA 44; for IC50: MRSA ATCC BAA-44. As for the experimental part:
as §1
(§3) Biofilm Dispersion Assay. Studies were performed using the standard method described in J. J. Richards, T. E. Ballard and C. Melander, Org Biomol Chem, 2008, 6, 1356-1363. Briefly, dispersion assays were performed by taking an overnight culture of bacterial strain and subculturing it at an OD600 of 0.01 into the necessary growth liquid medium. The resulting bacterial suspension was aliquoted (100 μL) into the wells of a 96-well PVC microtiter plate. Plates were then wrapped in GLAD Press n' Seal followed by an incubation under stationary conditions at an ambient temperature. After 24 hours, the media was discarded from the wells and the plates were washed thoroughly with tap water. Predetermined concentrations of the test compound were then made in the same medium used to initially grow the biofilms and then aliquoted (100 μL) into the wells of the 96-well PVC microtiter plate with the established biofilms. Plates were then wrapped in GLAD Press n'Seal and incubated under stationary conditions at 37° C. After 24 hours, the media was discarded from the wells and the plates were washed thoroughly with tap water. Plates were then stained with 100 μL of 0.1% solution of crystal violet (CV) and then incubated at room temperature for 30 minutes. Plates were then washed with tap water again and the remaining stain was solubilized with 200 μL of 95% ethanol. Biofilm dispersion was quantitated by measuring the OD540 for each well by transferring 125 μL of the solubilized CV stain into a polystyrene microtiter dish for analysis. Biofilm inhibition was quantified by measuring the OD540 of each well and calculated as a percentage of the control (no compound), a negative control lane wherein no biofilm was formed served as a background and was subtracted out.
(§4) Percent dispersion was then plotted against concentration in Prism 7. Each of the four experiments were plotted separately and analyzed by a normalized nonlinear regression. The IC50 values reported represent an arithmetic mean of the four IC50 values. Biofilm data represent four separate experiments, with each experiment performed in duplicate (average of 8 data points for each concentration tested, unless otherwise noted)

Assay [5] concerns MRSA Strain 1685. Description: Biofilm dispersion assay (crystal violet). The assay is classed as cell-based, Staphylococcus aureus. Here is the method: as §1, §3, §4
Assay [6] has as its system MRSA Strain 1770. The experiment in a line: Biofilm dispersion assay (crystal violet). It is filed as cell-based, Staphylococcus aureus. As for the experimental part: as §1, §3, §4
Assay [7] concerns MRSA Strain 43300. Description: Biofilm dispersion assay (crystal violet). The assay is classed as cell-based, Staphylococcus aureus. Conditions: for % Biofilm Dispersion (5/40 μM): MRSA strain 43300. Here is the method: as §1, §3, §4
Assay [8] concerns MRSA ATCC BAA-44. The experiment in a line: Broth microdilution MIC determination. The note with it: for MIC: Staphylococcus aureus. It is filed as cell-based, Staphylococcus aureus.
[9] abbreviates: MRSA ATCC BAA 44, Table 2, read-out: MIC.
[10] abbreviates: MRSA ATCC BAA-44, Table 1, read-out: Antimicrobial Activity MIC.

The structures appear in SMILES notation. ≈ marks a conversion by molar mass, not a printed value. Read-outs that look alike come from different tables or passages of the source.

As a reminder, the MIC is the least concentration at which growth counts as inhibited. Usually IC50 stands for the concentration that inhibits the measured activity by half. The low end stands for greater potency in that assay, the high end for weaker potency in that assay. Consider `O=C1NC(C(Cl)(Cl)Cc2ccccc2)O/C1=C\c1ccc(C(F)(F)F)cc1` (stereo not shown) [Compound 2, (Z)-2-(1,1-dichloro-2-phenylethyl)-5-(4-(trifluoromethyl)benzylidene)oxazolidin-4-one], for which the MIC with MRSA ATCC 33591 was found to be 6 µg/mL (≈ 14.4 µM); with MRSA Strain 1685 [1], 8 µg/mL (≈ 19.2 µM); against MRSA Strain 1770 [2] it was 8 µg/mL (≈ 19.2 µM); in the assay with MRSA Strain 43300 [3], 8 µg/mL (≈ 19.2 µM); in the assay on MRSA ATCC BAA-44 [8] (setting [9]), 6 µg/mL (≈ 14.4 µM); with MRSA ATCC BAA-44 [8] (setting [10]) it was 6 µg/mL (≈ 14.4 µM). The “% dispersion of pre-formed biofilm” value with MRSA ATCC BAA-44 [4] was 69%. Besides, the % dispersion of pre-formed biofilm at 5 µM with MRSA ATCC BAA-44 [4] (Staphylococcus aureus) is 57%. Besides, the IC50 with MRSA ATCC BAA-44 [4] (Staphylococcus aureus) came out at 4.3 µM. In addition, the results for the “% Biofilm Dispersion (5/40 μM)” value with MRSA Strain 1685 [5] (5 μM), in the assay with MRSA Strain 1770 [6] (5 μM) and with MRSA Strain 43300 [7] (5 μM) were 15/− %, 29/− % and 37/− %, respectively. The “biofilm dispersion activity (in words)” value in the assay on MRSA Strain 43300 [7] (MRSA strain 43 300) was “no dose-dependent dispersion activity”. Besides, in the assay on MRSA ATCC BAA-44 [8] (benzyl side chain (2) versus n-butyl side chain (1)), the “fold enhancement of the MIC” value was found to be 2 fold.
Regarding `CCCCC(Cl)(Cl)C1NC(=O)/C(=C/c2ccc(C(F)(F)F)cc2)O1` (stereo not shown) [Compound 1, (Z)-2-(1,1-dichloropentyl)-5-(4-(trifluoromethyl)benzylidene)oxazolidin-4-one], the MIC worked out at 12 µg/mL (≈ 31.4 µM) in the assay with MRSA ATCC 33591; 16 µg/mL (≈ 41.9 µM) against MRSA Strain 1685 [1]; 16 µg/mL (≈ 41.9 µM) against MRSA Strain 1770 [2]; 8 µg/mL (≈ 20.9 µM) in the assay with MRSA Strain 43300 [3]; 12000 µg/mL (≈ 31400 µM) in the assay on MRSA ATCC BAA-44 [8] (MRSA ATCC BAA-44, read-out: MIC); 12 µg/mL (≈ 31.4 µM) in the assay with MRSA ATCC BAA-44 [8] (setting [9]). Further, in the assay on MRSA ATCC BAA-44 [8] (setting [10]), the MIC was determined as 12 µg/mL (≈ 31.4 µM). Besides, the “% dispersion of pre-formed biofilm” value in the assay on MRSA ATCC BAA-44 [4] was 87%. Also, the IC50 in the assay with MRSA ATCC BAA-44 [4] was 5.7 µM; in the assay on MRSA ATCC BAA-44 [4] (Staphylococcus aureus) it was 4.7 µM. The compound also gave a % dispersion of pre-formed biofilm at 5 µM in the assay with MRSA ATCC BAA-44 [4] (Staphylococcus aureus) of 59%. Also, the “% Biofilm Dispersion (5/40 μM)” value is recorded as 24% in the assay with MRSA Strain 1685 [5] (5 μM); 61% with MRSA Strain 1685 [5] (40 μM); 52% in the assay on MRSA Strain 1770 [6] (5 μM); 46% in the assay on MRSA Strain 1770 [6] (40 μM); 23% in the assay on MRSA Strain 43300 [7] (5 μM); 63% in the assay with MRSA Strain 43300 [7] (40 μM).
